Data on 1 compound can be found in patent publication US20230405006A1, “COMBINATION PHARMACEUTICAL COMPOSITION AND TREATMENT METHOD” (CARNA BIOSCIENCES, INC., priority 2020, published 2023).

Assay [1] deals with mouse colorectal cancer cell line CT26.WT. The experiment in a line: Antitumor effect in allograft (syngeneic) mouse model with mouse colorectal cancer cell line CT26.WT. It is filed as in vivo. Particulars: for tumor growth (time course of tumor volume): CT26.WT subcutaneous, FIG. 1. The method, then:
The antitumor effect of the compound according to the present invention was examined by using a syngeneic mouse tumor model with the mouse colorectal cancer cell line CT26.WT (subcutaneous transplantation).
To RPMI-1640 medium (Life Technologies, No. A1049101), 10% FBS (Biowest) and 1% penicillin streptomycin (NACALAI TESQUE, INC.) were added to prepare a cell culture medium (hereinafter, referred to as the medium 1). CT26.WT cells (ATCC) were cultured with the medium 1 in a flask in a 5% CO2 incubator.
The cell density of CT26.WT cells was adjusted with RPMI-1640 medium (containing 1% penicillin streptomycin, hereinafter, referred to as the medium 2) to 5×10^6 cells/mL; thus a cell preparation solution for transplantation was produced. Into the back of each BALB/cCrslc mouse (female, 8-week-old, Japan SLC, Inc.), 0.1 mL of the cell preparation solution for transplantation was subcutaneously transplanted. On day 3 after the transplantation of cancer cells, the cancer-bearing mice were grouped in such a manner that the means of tumor volume (see a calculation formula below) approximated to each other.
As a sample solution for administration of the test substance, a 1.5 mg/mL solution was prepared. The test substance (71.9 mg) was dissolved in DMSO (2.4 mL, NACALAI TESQUE, INC.), to which polyethylene glycol #400 (24.0 mL, NACALAI TESQUE, INC.) was added and mixed well, and 21.5 mL of 30% (w/v) aqueous solution of 2-hydroxypropyl-β-cyclodextrin (HP-β-CD, Wacker Chemical AG) was then added thereto to produce a 1.5 mg/mL sample solution for administration. […]
Forced oral administration of 0.1 mL of the test substance or a solvent per 10 g body weight on that day (15 mg/kg) was performed to each mouse with transplanted cancer cells (six mice per group) twice per day (interval: 6 hours or longer) from day 3 to day 21 after the transplantation. […] The mice were followed up until day 48 after the transplantation, and the tumor diameter of each mouse was measured to calculate the tumor volume by using the following formula several times per week for evaluation of the antitumor effect. […]

For assay [2], the system named is mouse B-cell lymphoma cell line A20. The experiment in a line: Antitumor effect in allograft (syngeneic) mouse model with mouse B-cell lymphoma cell line A20. It is filed as in vivo. As for the experimental part: The antitumor effect of the compound according to the present invention was examined by using a syngeneic mouse tumor model with the mouse B-cell lymphoma cell line A20 (subcutaneous transplantation).
To RPMI-1640 medium (Life Technologies, No. A1049101), 10% FBS (HyClone), 0.05 mM 2-mercaptoethanol, and 1% penicillin streptomycin (NACALAI TESQUE, INC.) were added to prepare a cell culture medium (hereinafter, referred to as the medium 3). A20 cell (ATCC) were cultured with the medium 3 in a flask in a 5% CO2 incubator.
The density of A20 cells was adjusted with the medium 2 to 5×10^7 cells/mL; thus a cell preparation solution for transplantation was produced. […]
Forced oral administration of 0.1 mL of the test substance or a solvent per 10 g body weight on that day (15 mg/kg) was performed to each mouse with transplanted cancer cells (six mice per group) twice per day (interval: 6 hours or longer) from day 3 to day 14 after the transplantation. […] The mice were followed up until day 46 after the transplantation, and the tumor diameter of each mouse was measured to calculate the tumor volume by using the same formula as in Example 1 several times per week for evaluation of the antitumor effect.
In addition, tumor was excised from each mouse on day 46 after the transplantation, and the tumor weight was measured.

With `Nc1nc(-c2cccc(-n3ccc4cc(C5CC5)cc(F)c4c3=O)c2CO)c2cc(C3=CCN(C4COC4)CC3)[nH]c2n1` [Compound (I-A), 2-(3-{2-amino-6-[1-(oxetan-3-yl)-1,2,3,6-tetrahydropyridin-4-yl]-7H-pyrrolo[2,3-d]pyrimidin-4-yl}-2-(hydroxymethyl)phenyl)-6-cyclopropyl-8-fluoroisoquinolin-1(2H)-one], the “tumor growth (time course of tumor volume)” value in assay [1] (I-A 15 mg/kg oral twice per day in combination with anti-PD-1 antibody 10 mg/kg i.p. twice per week) is on record as “significant tumor growth suppression/tumor regression effect”; in assay [1] (I-A alone, 15 mg/kg oral twice per day, day 3 to 21, BALB/c mice, followed to day 48) it was “suppressed tumor growth”. Also, the “complete regression of tumor (mice with transplanted tumor)” value in assay [1] (I-A 15 mg/kg oral twice per day in combination with anti-PD-1 antibody 10 mg/kg i.p., CT26.WT, six mice per group) is recorded as “five of the six”; in assay [2] (I-A 15 mg/kg oral twice per day in combination with anti-PD-1 antibody 10 mg/kg i.p., A20, six mice per group), “five of the six”. Also, in assay [2] (I-A 15 mg/kg oral twice per day (day 3 to 14) in combination with anti-PD-1 antibody 10 mg/kg i.p. twice per week, A20 subcutaneous, FIG. 2), the “tumor growth / tumor weight on day 46 after the transplantation” value was “significant tumor growth suppression/tumor regression effect”.
